Laboratory results from patent publication US8183260B2, “5H-thioeno(3,4-c)pyrrole-4,6-dione derivatives and their use as tumor necrosis factor inhibitors” (Tianjin Hemay Bio-Tech Co., Ltd., priority 2005, dated 2012).

Test system: TNFα released by PBMCs
Experiment: Inhibition of TNFα release from monocytes (PBMC) stimulated by LPS, ELISA
Assay type: cell-based
Conditions: Homo sapiens, LPS 0.1 μg/mL, 20 hr incubation; for inhibition at 100 µM: test concentration 100 μM; for inhibition at 100 µM / inhibition at 3 µM: read-out: Degree of inhibition (%); for IC50: concentration giving 50% TNFα inhibition; for inhibition at 3 µM: test concentration 3.0 μM
Procedure: Cytokine TNFα released by PBMCs in the peripheral blood after […] (LPS) stimulation in vitro was studied. The followings are experimental protocols for studying cytokine TNFα released by PBMCs, which are inhibited by compounds of the invention.
PBMCs were obtained from blood of at least three volunteers after heparin treatment, using gradient extraction. PBMCs were collected and washed three times with a 1640 medium (10% calf serum, 2 mM L-glutamine, […], 50 μg/mL streptomycin, 50 U/mL penicillin), then placed into wells of a 24-well cell culture plate. The concentration was adjusted to 1×10^6 cells/mL with 1640 culture medium. […] The resultant solution was added to the cell culture medium and the culture plate was placed in a CO2 incubator (5% CO2, 90% humidity) for 1 hour. Then, LPS (Sigma) was added and its concentration was adjusted to 0.1 μg/mL (except for the control).
After a 20 hr incubation period, the content of TNFα in supernatant of the above PBMC culture medium was assayed by ELISA kit (America Genzyme Co), using standard method. The measured value of the control well (not treated with active components), and the measured value of the test wells containing the test compounds was used to calculate the TNFα inhibition rate. The concentration of compounds giving a 50% TNFα inhibition (IC50 value) was calculated using nonlinear regression analysis. Each concentration was determined twice and an average value was calculated.

| SMILES | inhibition at 100 µM | IC50 | inhibition at 3 µM |
| --- | --- | --- | --- |
| O=C1CCC(N2C(=O)c3cscc3C2=O)C(=O)N1 (stereo not shown) [Example 10, 5-(2,6-dioxopiperidin-3-yl)-5H-thieno(3,4-c)pyrrole-4,6-dione] | 32% | – | – |
| CN1C(=O)CCC(N2C(=O)c3cscc3C2=O)C1=O (stereo not shown) [Example 13, 5-(1-methyl-2,6-dioxopiperidin-3-yl)-5H-thieno(3,4-c)pyrrole-4,6-dione] | 20% | – | – |
| COC(=O)CN1C(=O)CCC(N2C(=O)c3cscc3C2=O)C1=O (stereo not shown) [Example 15, 5-(1-methoxycarbonylmethyl-2,6-dioxopiperidin-3-yl)-5H-thieno(3,4-c)pyrrole-4,6-dione] | 18% | – | – |
| COCCN1C(=O)CCC(N2C(=O)c3cscc3C2=O)C1=O (stereo not shown) [Example 16, 5-(1-(2-methoxyethyl)-2,6-dioxopiperidin-3-yl)-5H-thieno(3,4-c)pyrrole-4,6-dione] | 28% | – | – |
| O=C1CCC(N2C(=O)c3csc([N+](=O)[O-])c3C2=O)C(=O)N1 (stereo not shown) [Example 18, 1-nitro-5-(2,6-dioxopiperidin-3-yl)-5H-thieno(3,4-c)pyrrole-4,6-dione] | 28% | – | – |
| Nc1scc2c1C(=O)N(C1CCC(=O)NC1=O)C2=O (stereo not shown) [Example 19, 1-amino-5-(2,6-dioxopiperidin-3-yl)-5H-thieno(3,4-c)pyrrole-4,6-dione] | – | 6 nM | 95% |
| CNc1scc2c1C(=O)N(C1CCC(=O)NC1=O)C2=O (stereo not shown) [Example 22, 1-methylamino-5-(2,6-dioxopiperidin-3-yl)-5H-thieno(3,4-c)pyrrole-4,6-dione] | – | 500 nM | 62% |
| CC(=O)Nc1scc2c1C(=O)N(C1CCC(=O)NC1=O)C2=O (stereo not shown) [Example 24, 1-acetamido-5-(2,6-dioxopiperidin-3-yl)-5H-thieno(3,4-c)pyrrole-4,6-dione] | – | – | 48% |
| CC1(N2C(=O)c3csc(N)c3C2=O)CCC(=O)NC1=O (stereo not shown) [Example 27, 1-amino-5-(3-methyl-2,6-dioxopiperidin-3-yl)-5H-thieno(3,4-c)pyrrole-4,6-dione] | – | 50 nM | 84% |
| CN1C(=O)CCC(N2C(=O)c3csc(N)c3C2=O)C1=O (stereo not shown) [Example 31, 1-amino-5-(1-methyl-2,6-dioxopiperidin-3-yl)-5H-thieno(3,4-c)pyrrole-4,6-dione] | – | 350 nM | 71% |
| O=C1CCC(N2C(=O)c3ccccc3C2=O)C(=O)N1 (stereo not shown) [Thalidomide, reference compound] | 22% | 183000 nM | – |
